Results as given in PubChem BioAssay (NCI).
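Where inhibition never reached the appropriate level, the endpoint shown equals the highest concentration tested. Otherwise, values were interpolated linearly from a five-concentration, 48-hour dose response in 96-well plates. TGI marks complete inhibition of growth.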

Experiments:
Assay in all cases: NCI-60 cell line screen, 48 h
CCRF-CEM leukemia = tested on: CCRF-CEM leukemia
CAKI-1 renal = tested on: CAKI-1 renal
OVCAR-3 ovarian = tested on: OVCAR-3 ovarian
HL-60(TB) leukemia = tested on: HL-60(TB) leukemia
IGROV1 ovarian = tested on: IGROV1 ovarian
SK-MEL-2 melanoma = tested on: SK-MEL-2 melanoma
NCI-H460 lung = tested on: NCI-H460 lung
SW-620 colon = tested on: SW-620 colon
SN12C renal = tested on: SN12C renal
SF-295 CNS = tested on: SF-295 CNS
SF-268 CNS = tested on: SF-268 CNS
HCC-2998 colon = tested on: HCC-2998 colon
HOP-62 NSCLC = tested on: HOP-62 NSCLC
A498 renal = tested on: A498 renal
NCI-H23 lung = tested on: NCI-H23 lung
SK-MEL-5 melanoma = tested on: SK-MEL-5 melanoma
SK-MEL-28 melanoma = tested on: SK-MEL-28 melanoma
RXF 393 renal = tested on: RXF 393 renal
UO-31 renal = tested on: UO-31 renal
SF-539 CNS = tested on: SF-539 CNS

Row | SMILES | TGI (CCRF-CEM leukemia) | TGI (CAKI-1 renal) | TGI (OVCAR-3 ovarian) | TGI (HL-60(TB) leukemia) | TGI (IGROV1 ovarian) | TGI (SK-MEL-2 melanoma) | TGI (NCI-H460 lung) | TGI (SW-620 colon) | TGI (SN12C renal) | TGI (SF-295 CNS) | TGI (SF-268 CNS) | TGI (HCC-2998 colon) | TGI (HOP-62 NSCLC) | TGI (A498 renal) | TGI (NCI-H23 lung) | TGI (SK-MEL-5 melanoma) | TGI (SK-MEL-28 melanoma) | TGI (RXF 393 renal) | TGI (UO-31 renal) | TGI (SF-539 CNS)
1 | Cc1cc(C)nc(NS(=O)(=O)c2ccc(Nc3c4ccccc4nc4c(C(=O)NCCO)cccc34)cc2)n1 | 50.9 µM | 52.7 µM | > 100 µM | > 100 µM | > 100 µM | 35.7 µM | > 100 µM | > 100 µM | > 100 µM | 53.5 µM | 58.6 µM | 27.8 µM | 71.3 µM | > 100 µM | > 100 µM | 36.6 µM | 41.3 µM |  |  | 
2 | O=C(NN1C(=O)CSC1c1ccc(Cl)c(Cl)c1)c1ccncc1 (stereo unspecified) | > 100 µM | > 100 µM |  | > 100 µM | > 100 µM | > 100 µM |  | > 100 µM | > 100 µM | > 100 µM | > 100 µM | > 100 µM |  | > 100 µM | > 100 µM | > 100 µM | > 100 µM | > 100 µM | > 100 µM | > 100 µM
3 | CCOC(=O)c1csc(NC(=O)CCCC#N)n1 | > 100 µM | > 100 µM | > 100 µM | > 100 µM |  | > 100 µM | > 100 µM | > 100 µM |  | > 100 µM |  | > 100 µM | > 100 µM | > 100 µM | > 100 µM | > 100 µM | > 100 µM | > 100 µM | > 100 µM | > 100 µM
4 | COc1ccc(/C(C)=N/NC(=S)N(C)C)c(O)c1 | 87.9 µM | 96.6 µM | > 100 µM |  | 23.2 µM | > 100 µM | > 100 µM | > 100 µM | > 100 µM | > 100 µM | > 100 µM | > 100 µM | > 100 µM |  | 72.9 µM | > 100 µM | > 100 µM |  | 36 µM | 
5 | O=c1c2cc3c(=O)n(CCc4ccccc4CO)c(=O)c3cc2c(=O)n1CCc1ccccc1CO | > 100 µM |  | > 100 µM | > 100 µM | > 100 µM | > 100 µM | > 100 µM | > 100 µM | > 100 µM | > 100 µM | > 100 µM |  |  | > 100 µM | > 100 µM | > 100 µM | > 100 µM | > 100 µM | > 100 µM | > 100 µM
6 | CCOC(=O)C1=C(C)NC(=O)N([N+](=O)[O-])C1c1ccccc1C(F)(F)F (stereo unspecified) | > 100 µM | > 100 µM | > 100 µM | > 100 µM | > 100 µM | > 100 µM | > 100 µM | > 100 µM | > 100 µM | > 100 µM | > 100 µM |  | > 100 µM | > 100 µM | > 100 µM | > 100 µM | > 100 µM | > 100 µM | > 100 µM | 71.9 µM
7 | c1ccc([P+](Cc2csnn2)(c2ccccc2)c2ccccc2)cc1 | > 100 µM | > 100 µM | > 100 µM | > 100 µM | > 100 µM | > 100 µM | > 100 µM | > 100 µM | > 100 µM | > 100 µM | > 100 µM | > 100 µM | > 100 µM | > 100 µM | > 100 µM | > 100 µM | > 100 µM | > 100 µM | > 100 µM | > 100 µM
8 | CCc1cc(=O)n(/C(C)=C/c2ccccc2)n1C | > 100 µM | > 100 µM | > 100 µM |  | > 100 µM | > 100 µM | > 100 µM | > 100 µM | > 100 µM | > 100 µM | > 100 µM | > 100 µM | > 100 µM |  | > 100 µM | > 100 µM | > 100 µM | > 100 µM | > 100 µM | > 100 µM
